From article PMC9151520 (Archives of Toxicology, 2022)
Where “and” joins values, the source holds several entries; their conditions need not be identical. Identical values can stand only once. Like-named read-outs stand apart in the source and are kept apart here.

Key:
[1] = system: p53 signaling (p53RE-bla HCT-116 cells); test: cells; type: cell-based
[2] = system: p53RE-bla HCT-116 cells
[3] = system: p53 signaling (p53RE-bla HCT-116 cells); test: cells; type: cell-based; set-up: efficacy: unit not given here; conditions: for EC50: read-out: EC50
[4] = system: p53 signaling (p53RE-bla HCT-116 cells)
[5] = rat, microsomes, pH 7.4
[6] = system: p53 signaling (p53RE-bla HCT-116 cells); remark: listed apart in the source
[7] = system: p53 signaling (p53RE-bla HCT-116 cells); test: cells; type: cell-based; remark: listed apart in the source

SMILES: Cc1cc(=O)oc2cc(O)ccc12.O [4-Methylumbelliferone hydrate]
- EC50, p53 activation, cherry pick confirmation [1]: inactive
- EC50, p53 activation, primary screening [1]: inactive
- Efficacy, p53 activation, cherry pick confirmation [1]: inactive
- Efficacy, p53 activation, primary screening [1]: inactive
- EC50, viability, cherry pick confirmation [2]: inactive
- EC50, viability, primary screening [2]: inactive
- Efficacy, viability, cherry pick confirmation [2]: inactive
- Efficacy, viability, primary screening [2]: inactive
- efficacy [3]: 25.18 ± 1.7 ( 100.84 ± 7.34 ) %
- EC50 [3]: 25.2 µM
- EC50, p53 activation, cherry pick confirmation [4]: inactive
- EC50, p53 activation, primary screening [4]: inactive
- Microsome stability Half-life without cells [5]: 26.74 ± 0.98 min
- EC50 [6]: 23.3 µM
- EC50 ([6]; read-out: EC50, p53 activation, cherry pick confirmation): 25.7 µM
- EC50 ([6]; read-out: EC50, p53 activation, primary screening): 33.4 µM
- EC50 [7]: Inactive

SMILES: COP(=S)(NC(C)C)Oc1ccc(C)cc1[N+](=O)[O-] (centres unmarked) [Amiprofos-methyl]
- p53 activation EC50 [1]: inactive
- p53 activation efficacy [1]: inactive
- Viability EC50 [2]: inactive
- Viability efficacy [2]: inactive
- efficacy [3]: 4.48 ± 0.3 ( 100.11 ± 8.75 ) %
- EC50 [3]: 4.48 µM
- p53 activation EC50 [4]: inactive
- Microsome stability Half-life without cells [5]: 1.11 min
- EC50 [6]: 4.69 µM
- activity outcome in p53-bla assay [6]: induce p53 signaling
- p53 activation efficacy [6]: 84.8532 and 75.0867
- EC50 [7]: Inactive
